Results as given in patent publication US20150335678A1, “METHOD OF ACTIVATING STEM CELLS IN AN ANIMAL AND THE USE OF CHLORINE DIOXIDE FOR PREPARING MEDICINES FOR ACTIVATING STEM CELLS IN AN ANIMAL” (priority 2012, published 2015).

How the values were obtained:
[1] = test system: androgenetic alopecia (hair-loss patients); assay: Androgenetic alopecia patients, solution smeared on alopecia area (Example 1); conditions: for increased ratio of hair density vs before administration, Region 1 (center of crown) / increased ratio of hair density vs before administration, Region 2 (middle of crown and forehead) / increased ratio of hair density vs before administration, Region 3 (on the forehead) / increased ratio of hair density vs before administration, Region 4 (both sides of forehead): 5.1 cm2 circle
Method: Drug preparation: The first solution was a mixed solution made of sodium chlorite with the concentration of 7.47% and sodium chloride with the concentration of 1.59% with deionized water; the second solution was made of citric acid with the concentration of 16.7% with deionized water.
Dosage and administration: Same volume of solutions were taken out from different vessels with different volumes and put into the suitable glass or plastic cups prepared. Allow the solution to mix for 3-5 minutes and then filter the solution with 0.22 μm filter membrane of double-deck. The alopecia area was smeared with the solution by swab, waiting for 1-2 hours before cleaning the head, once a day. The medicine was taken according to the course of treatment. The first course of treatment was 15-25 days, the second course of treatment began after 2-5 months of drug withdrawal. The administration days were 10-15 days from the second course of treatment, and the next course of treatment began after 2-5 months of drug withdrawal.
The subjects consisted of 42 male hair-loss patients and one patient (22-68 years old.) They were willing to use the drug (hereinafter referred to as administration). See Table 1 for specific information.
To select four circular regions (5.1 cm^2) with diameter of 2.54 cm in the following regions: the center of crown (in front of the whirl on the head, region 1), the middle of crown and forehead (region2), on the forehead (region 3), both sides of forehead (region 4), and calculate the amount of hair through digital photographs respectively on the 10th day (t1), the first month (t2), second month (t3) after administration of the first course of treatment, and the second month (t4) after administration of the second course of treatment, as well as the second month (t5) after administration of the third course of treatment. Then the increased ratios of hair density in different regions were worked out by comparing the amount of hair before administration. (See Table 2)

[2] = test system: BrdU-positive cells (neural stem cells and neural progenitor cells); assay: BrdU-positive and BrdU-positive/nestin-positive (proliferating) cells in the SVZ region; assay type: in vivo, Sprague-Dawley rats; conditions: for number of BrdU-positive cells in the SVZ region, proliferation (mean±SD): BrdU on day 5, 6, 12, 13, 19, 20
Method: Male Sprague-Dawley rats with the age of 12 weeks and weight of 250^˜280 g were used in the experiment after acclimating for a week.
A middle cerebral artery occlusion model was first established in compliance with the method of Longa E Z et al. (Longa E Z, et al. Reversible middle cerebral artery occlusion without craniectomy in rats. Stroke 20:84-91, 1989). More specifically, 0.36 g/kg of 10% chloral hydrate was administered intraperitoneally to rats which had been fasted for 12 hours (although given free access to water) to anesthetize the rats. Next, a midline incision was made in the neck to expose the right common carotid artery. Then, the internal carotid artery and external carotid artery were separated, the posterior carotid artery, which is a branch of the external carotid artery, and the thyroidea arteria were coagulated and severed, the external carotid artery was ligated at the branch of the lingual artery and maxillary artery, a small puncture was formed in the external carotid artery, 4-0 Nylon suture was passed through the common carotid artery from the puncture, and gradually inserted into the internal carotid artery until there was resistance. The length of the Nylon suture was about 18^˜20 mm from the branch of the common carotid artery. As a result of occluding the middle cerebral artery with Nylon suture, an ischemic state was applied for 2 hours to create a middle cerebral artery occlusion model.
A cerebral ischemia/reperfusion injury model was established by removing the Nylon suture from the middle cerebral artery of the occlusion model and following reperfusion of blood.
The first solution was a mixed solution made of sodium chlorite with the concentration of 7.47% and sodium chloride with the concentration of 1.59% with deionized water; the second solution was made of citric acid with the concentration of 16.7% with deionized water. Same volume of solutions were taken out from different vessels with different volumes and mixed up. Allow the solution to mix for 3-5 minutes and dilute it five times with normal saline, and then filter it with 0.22 μm filter membrane of double-deck. The solution was immediately put into injector. The solution was prepared once being used.
Treatment group (120 rats): A cerebral ischemia/reperfusion injury model was established for the rats already. To administer chlorine dioxide solution everytime that prepared from procedure (3) through carotid artery after the second day the model has established, once a day for total ten days.
On day 5, 6, 12, 13, 19 and 20 after the model established, 50 mg/kg of 5-bromodeoxyuridine was injected intraperitoneally into 30 rats in each group. Because BrdU is a thymidine analog, it can incorporate into the DNA of cells during the course of cell proliferation (DNA synthesis). Thus, cell proliferation can be analyzed by detecting the amount of intracellular BrdU. The rats were autopsied on day 7, 14 and 21 after the model established for preparation of frozen brain sections. The presence of BrdU-positive cells by immunochemical stain, and the presence of BrdU-positive/nestin-positive cells by double-immunofluorescent stain in the SVZ region were analyzed.
The presence of BrdU-positive cells was analyzed using mouse anti-rat BrdU monoclonal antibody.
The presence of BrdU-positive/nestin-positive cells was analyzed by double-immunofluorescent stain using a combination of primary antibody of goat anti-rat BrdU polyclonal antibody and secondary antibody of FITC-labeled rabbit anti-goat antibody, and a combination of primary antibody of mouse anti-rat nestin monoclonal antibody and secondary antibody of Rho-labeled rabbit anti-mouse antibody.
BRt(%)=(Bt−St)/(Mt−St)×100

wound = conditions: clinical trial report No. NCT01341041, Rhode Island Hospital; cited from earlier work
wound of rabbit = conditions: Jin Wei et al. 2011; cited from earlier work
[3] = 2-6 days after administration, n=43, NaClO2 7.47% + citric acid 16.7% 1:1, topical once a day
[4] = 3-5 days after administration, n=43, NaClO2 7.47%/NaCl 1.59% + citric acid 16.7% mixed 1:1, smeared on alopecia area once a day
[5] = 15-25 days after administration, n=43, NaClO2 7.47% + citric acid 16.7% 1:1, topical once a day
[6] = T1: 10th day, first course, n=43, NaClO2 7.47% + citric acid 16.7% topical
[7] = T2: first month after administration of first course, n=43, NaClO2 7.47% + citric acid 16.7% topical
[8] = T3: second month after administration of first course, n=43, NaClO2 7.47% + citric acid 16.7% topical
[9] = T4: second month after administration of second course, n=43, NaClO2 7.47% + citric acid 16.7% topical
[10] = T5: second month after administration of third course, n=43, NaClO2 7.47% + citric acid 16.7% topical
[11] = inventor's observation, chlorine dioxide solution applied every day
[12] = medicine stopped for 2-5 months after a course of treatment, n=43, NaClO2 7.47% + citric acid 16.7% 1:1, topical once a day

## [O][Cl+][O-] [chlorine dioxide solution, chlorine dioxide]
[1]; [3]
  Effective rate: hair in the affected area fell off quickly: 100%
  No. effective patients: hair in the affected area fell off quickly: 43
[1]; [4]
  Effective rate: beard like new hair regrew, seen by naked eyes: 98%
  No. effective patients: beard like new hair regrew, seen by naked eyes: 42
[1]; [5]
  Effective rate: new hair grew persistently: 93%
  No. effective patients: new hair grew persistently: 40
[1]; T1: 10th day, first course, digital photographs, n=43, NaClO2 7.47% + citric acid 16.7% topical once a day
  increased ratio of hair density vs before administration, Region 1 (center of crown): 123%
[1]; [6]
  increased ratio of hair density vs before administration, Region 2 (middle of crown and forehead): 117%
  increased ratio of hair density vs before administration, Region 3 (on the forehead): 133%
  increased ratio of hair density vs before administration, Region 4 (both sides of forehead): 102%
[1]; [7]
  increased ratio of hair density vs before administration, Region 1 (center of crown): 137%
  increased ratio of hair density vs before administration, Region 2 (middle of crown and forehead): 129%
  increased ratio of hair density vs before administration, Region 3 (on the forehead): 134%
  increased ratio of hair density vs before administration, Region 4 (both sides of forehead): 157%
[1]; [8]
  increased ratio of hair density vs before administration, Region 1 (center of crown): 154%
  increased ratio of hair density vs before administration, Region 2 (middle of crown and forehead): 142%
  increased ratio of hair density vs before administration, Region 3 (on the forehead): 153%
  increased ratio of hair density vs before administration, Region 4 (both sides of forehead): 163%
[1]; [9]
  increased ratio of hair density vs before administration, Region 1 (center of crown): 196%
  increased ratio of hair density vs before administration, Region 2 (middle of crown and forehead): 185%
  increased ratio of hair density vs before administration, Region 3 (on the forehead): 201%
  increased ratio of hair density vs before administration, Region 4 (both sides of forehead): 260%
[1]; [10]
  increased ratio of hair density vs before administration, Region 1 (center of crown): 354%
  increased ratio of hair density vs before administration, Region 2 (middle of crown and forehead): 402%
  increased ratio of hair density vs before administration, Region 3 (on the forehead): 396%
  increased ratio of hair density vs before administration, Region 4 (both sides of forehead): 433%
[1]; after administration, topical once a day
  time until new hair could grow, most of patients: 2 to 3 days
[1]; human, in vivo
  duration of stabbing pain after application: 15 to 30 min
[1]; [11]
  time until new hair grows in alopecia area with hair: third to the fifth day
  time until new hair grows in alopecia area without hair: about 20 days
[1]; [12]
  Effective rate: hair recovered by one level, judged by naked eyes: 81%
  No. effective patients: hair recovered by one level, judged by naked eyes: 35
[1]; when administered for three days, red spot like solidified bleeding wound
  skin reaction in the administered area: micro wound was produced
[2]; Day 7
  BRt: BrdU-positive cells (proliferation) in treatment group relative to model group = 100%: 157.4%
[2]; Day 7, model group 136.56 ± 9.93, sham 52.8 ± 3.85, diluted solution via carotid artery once a day, ten days
  number of BrdU-positive cells in the SVZ region, proliferation (mean±SD): 184.61 ± 12.3 No. cells/mm2
[2]; Day 14
  BRt: BrdU-positive cells (proliferation) in treatment group relative to model group = 100%: 156.9%
[2]; Day 14, model group 328.6 ± 12.5, sham 33.9 ± 2.95
  number of BrdU-positive cells in the SVZ region, proliferation (mean±SD): 496.2 ± 30.6 No. cells/mm2
[2]; Day 21
  BRt: BrdU-positive cells (proliferation) in treatment group relative to model group = 100%: 141.2%
[2]; Day 21, model group 279.9 ± 12.8, sham 23.9 ± 1.95
  number of BrdU-positive cells in the SVZ region, proliferation (mean±SD): 385.3 ± 20.9 No. cells/mm2
[2]; treatment group, double-immunofluorescent stain
  presence of proliferating nestin-positive/BrdU-positive cells in the SVZ region: confirmed
wound
  effects compared with normal saline in wound irrigation: promote healing and reduce scar formation
Wound of rabbit
  effect on wound in animal test: speeding haemostasis and promoting healing on wound
